# Assay results reported in PubChem BioAssay AID248 (DTP/NCI, 2004).
# Values joined by “and” are separate entries in the source; they are usually repeats but may differ in a detail not shown here. Equal entries are not always repeated. Toxic doses and inconclusive results are not listed.
# Test system: L1210 leukemia ip in BDF1 mice, survival T/C
# Assay: NCI In Vivo Anticancer Drug Screen. Data for tumor model L1210 Leukemia (intraperitoneal) in B6D2F1 (BDF1) mice
# Settings: endpoint: mean survival time, higher = longer survival
# In short: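 Read-out is survival time, reported as the treated-group measurement over the vehicle-control measurement.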
# [1] = dose: 100.0 mg/kg/injection, schedule: Q01DX009 (ip), vehicle: Klucel (hydroxypropylcellulose) (HPC)
# [2] = dose: 200.0 mg/kg/injection, schedule: Q01DX009 (ip), vehicle: Klucel (hydroxypropylcellulose) (HPC)
# [3] = dose: 400.0 mg/kg/injection, schedule: Q01DX009 (ip), vehicle: Klucel (hydroxypropylcellulose) (HPC)
# [4] = dose: 100.0 mg/kg/injection, schedule: Q01DX001 (ip), vehicle: carboxymethylcellulose (CMC)
# [5] = dose: 200.0 mg/kg/injection, schedule: Q01DX001 (ip), vehicle: carboxymethylcellulose (CMC)
# [6] = dose: 400.0 mg/kg/injection, schedule: Q01DX001 (ip), vehicle: carboxymethylcellulose (CMC)
structure (smiles),measurement,setting,value
CC1(C)CC(=O)C(N=Nc2ccccc2)=C(O)C1,T/C,"dose: 100.0 mg/kg/injection, schedule: Q04DX002 (ip), vehicle: Klucel (hydroxypropylcellulose) (HPC)",105 % of control
same,T/C,"dose: 200.0 mg/kg/injection, schedule: Q04DX002 (ip), vehicle: Klucel (hydroxypropylcellulose) (HPC)",108 % of control
same,T/C,"dose: 400.0 mg/kg/injection, schedule: Q04DX002 (ip), vehicle: Klucel (hydroxypropylcellulose) (HPC)",94 % of control
Nc1cc(C(=O)Nc2ccc(C3=NCCN3)cc2)ccc1C(=O)Nc1ccc(C2=NCCN2)cc1,T/C,"dose: 0.49 mg/kg/injection, schedule: Q01DX Z (ip), vehicle: saline",107 % of control
same,T/C,"dose: 0.73 mg/kg/injection, schedule: Q01DX Z (ip), vehicle: saline",117 % of control
same,T/C,"dose: 2.5 mg/kg/injection, schedule: Q01DX Z (ip), vehicle: methylcellulose (MC)",103 % of control
same,T/C,"dose: 2.7 mg/kg/injection, schedule: Q01DX Z (ip), vehicle: carboxymethylcellulose (CMC)",153 % of control
same,T/C,"dose: 4.0 mg/kg/injection, schedule: Q01DX Z (ip), vehicle: carboxymethylcellulose (CMC)",162 % of control
same,T/C,"dose: 4.0 mg/kg/injection, schedule: Q01DX Z (ip), vehicle: methylcellulose (MC)",156 % of control
same,T/C,"dose: 4.4 mg/kg/injection, schedule: Q01DX015 (ip), vehicle: carboxymethylcellulose (CMC)",259 % of control
same,T/C,"dose: 6.0 mg/kg/injection, schedule: Q01DX Z (ip), vehicle: carboxymethylcellulose (CMC)",212 % of control
same,T/C,"dose: 6.0 mg/kg/injection, schedule: Q01DX Z (ip), vehicle: methylcellulose (MC)",250 % of control
same,T/C,"dose: 6.6 mg/kg/injection, schedule: Q01DX015 (ip), vehicle: carboxymethylcellulose (CMC)",329 % of control
same,T/C,"dose: 9.0 mg/kg/injection, schedule: Q01DX Z (ip), vehicle: carboxymethylcellulose (CMC)",247 % of control
same,T/C,"dose: 9.0 mg/kg/injection, schedule: Q01DX Z (ip), vehicle: methylcellulose (MC)",200 % of control and 346 % of control
same,T/C,"dose: 10.0 mg/kg/injection, schedule: Q01DX015 (ip), vehicle: carboxymethylcellulose (CMC)",303 % of control
same,T/C,"dose: 14.0 mg/kg/injection, schedule: Q01DX Z (ip), vehicle: carboxymethylcellulose (CMC)",345 % of control
same,T/C,"dose: 14.0 mg/kg/injection, schedule: Q01DX Z (ip), vehicle: methylcellulose (MC)",226 % of control and 329 % of control
same,T/C,"dose: 15.0 mg/kg/injection, schedule: Q01DX015 (ip), vehicle: carboxymethylcellulose (CMC)",333 % of control
same,T/C,"dose: 15.0 mg/kg/injection, schedule: Q01DX Z (oral), vehicle: carboxymethylcellulose (CMC)",96 % of control
same,T/C,"dose: 20.0 mg/kg/injection, schedule: Q01DX Z (ip), vehicle: carboxymethylcellulose (CMC)",154 % of control and 279 % of control
same,T/C,"dose: 20.0 mg/kg/injection, schedule: Q01DX Z (ip), vehicle: methylcellulose (MC)",94 % of control
same,T/C,"dose: 30.0 mg/kg/injection, schedule: Q01DX Z (ip), vehicle: carboxymethylcellulose (CMC)",152 % of control
same,T/C,"dose: 30.0 mg/kg/injection, schedule: Q01DX Z (oral), vehicle: carboxymethylcellulose (CMC)",93 % of control
same,T/C,"dose: 45.0 mg/kg/injection, schedule: Q01DX Z (ip), vehicle: carboxymethylcellulose (CMC)",101 % of control
same,T/C,"dose: 47.0 mg/kg/injection, schedule: Q01DX Z (ip), vehicle: methylcellulose (MC)",86 % of control
same,T/C,"dose: 60.0 mg/kg/injection, schedule: Q01DX Z (oral), vehicle: carboxymethylcellulose (CMC)",93 % of control
same,T/C,"dose: 120.0 mg/kg/injection, schedule: Q01DX Z (oral), vehicle: carboxymethylcellulose (CMC)",117 % of control
same,T/C,"dose: 240.0 mg/kg/injection, schedule: Q01DX Z (oral), vehicle: carboxymethylcellulose (CMC)",100 % of control
same,T/C,"dose: 480.0 mg/kg/injection, schedule: Q01DX Z (oral), vehicle: carboxymethylcellulose (CMC)",94 % of control
same,T/C,"dose: 960.0 mg/kg/injection, schedule: Q01DX Z (oral), vehicle: carboxymethylcellulose (CMC)",107 % of control
NNC(=O)CNc1ccccc1,T/C,"dose: 50.0 mg/kg/injection, schedule: Q01DX001 (ip), vehicle: Klucel (hydroxypropylcellulose) (HPC)",100 % of control
same,T/C,"dose: 100.0 mg/kg/injection, schedule: Q01DX001 (ip), vehicle: Klucel (hydroxypropylcellulose) (HPC)",110 % of control
same,T/C,"dose: 200.0 mg/kg/injection, schedule: Q01DX001 (ip), vehicle: Klucel (hydroxypropylcellulose) (HPC)",117 % of control
COC(=O)c1n[nH]c(C2OCC3OC(C)(C)OC32)c1I (stereo not drawn),T/C,"dose: 100.0 mg/kg/injection, schedule: Q01DX005 (ip), vehicle: saline",98 % of control
same,T/C,"dose: 200.0 mg/kg/injection, schedule: Q01DX005 (ip), vehicle: saline",98 % of control
Cc1ccc(NC(=O)Oc2cccc(C)c2C)cc1NC(=O)Oc1cccc(C)c1C,T/C,[1],96 % of control
same,T/C,[2],94 % of control
same,T/C,[3],93 % of control
CCOc1ccc(NC(=S)N=Nc2c(O)[nH]c3c(Cl)cc(Cl)cc23)cc1,T/C,"dose: 100.0 mg/kg/injection, schedule: Q04DX003 (ip), vehicle: saline",91 % of control
same,T/C,"dose: 200.0 mg/kg/injection, schedule: Q04DX003 (ip), vehicle: saline",89 % of control
same,T/C,"dose: 400.0 mg/kg/injection, schedule: Q04DX003 (ip), vehicle: saline",89 % of control
CCCCNC(C)(C)C(SSS(=O)(=O)O)c1ccc(Cl)cc1 (stereo not drawn),T/C,"dose: 100.0 mg/kg/injection, schedule: Q01DX009 (ip), vehicle: saline with Tween-80",96 % of control
same,T/C,"dose: 200.0 mg/kg/injection, schedule: Q01DX009 (ip), vehicle: saline with Tween-80",103 % of control
same,T/C,"dose: 400.0 mg/kg/injection, schedule: Q01DX009 (ip), vehicle: saline with Tween-80",92 % of control
CCCCC(=O)N/N=C\c1cccc(I)c1,T/C,[4],87 % of control
same,T/C,[5],93 % of control
same,T/C,[6],87 % of control
CC(=O)CC(=O)Nc1ccc(C(=O)c2ccccc2)cc1,T/C,"dose: 37.5 mg/kg/injection, schedule: Q01DX009 (ip), vehicle: saline",98 % of control
same,T/C,"dose: 75.0 mg/kg/injection, schedule: Q01DX001 (ip), vehicle: acetone",87 % of control
same,T/C,"dose: 75.0 mg/kg/injection, schedule: Q01DX001 (ip), vehicle: saline",95 % of control
same,T/C,"dose: 75.0 mg/kg/injection, schedule: Q01DX009 (ip), vehicle: saline",93 % of control
same,T/C,"dose: 150.0 mg/kg/injection, schedule: Q01DX001 (ip), vehicle: saline",98 % of control
same,T/C,"dose: 150.0 mg/kg/injection, schedule: Q01DX009 (ip), vehicle: saline",107 % of control
same,T/C,"dose: 300.0 mg/kg/injection, schedule: Q01DX001 (ip), vehicle: acetone",98 % of control
same,T/C,"dose: 300.0 mg/kg/injection, schedule: Q01DX001 (ip), vehicle: saline",90 % of control
C(=N\N1CCN(/N=C/c2cccc(OCc3ccccc3)c2)CC1)/c1cccc(OCc2ccccc2)c1,T/C,"dose: 100.0 mg/kg/injection, schedule: Q01DX001 (ip), vehicle: saline",96 % of control
same,T/C,"dose: 200.0 mg/kg/injection, schedule: Q01DX001 (ip), vehicle: saline",87 % of control
same,T/C,"dose: 400.0 mg/kg/injection, schedule: Q01DX001 (ip), vehicle: saline",90 % of control
O=NN(CCCl)C(=O)Nc1ccc2[nH]c3ccccc3c2c1,T/C,"dose: 90.0 mg/kg/injection, schedule: Q01DX009 (ip), vehicle: carboxymethylcellulose (CMC)",120 % of control
same,T/C,"dose: 260.0 mg/kg/injection, schedule: Q01DX009 (ip), vehicle: Klucel (hydroxypropylcellulose) (HPC)",108 % of control
same,T/C,"dose: 266.0 mg/kg/injection, schedule: Q01DX009 (ip), vehicle: carboxymethylcellulose (CMC)",157 % of control
same,T/C,"dose: 520.0 mg/kg/injection, schedule: Q01DX009 (ip), vehicle: Klucel (hydroxypropylcellulose) (HPC)",88 % of control
same,T/C,"dose: 600.0 mg/kg/injection, schedule: Q01DX009 (ip), vehicle: carboxymethylcellulose (CMC)",108 % of control
O=CC(=O)Nc1ccc(C(=O)O)c(O)c1,T/C,[1],95 % of control
same,T/C,[2],95 % of control
same,T/C,[3],98 % of control
O/N=C1\c2ccccc2-c2ccc(Br)cc21,T/C,[4],97 % of control
same,T/C,[5],117 % of control
same,T/C,[6],103 % of control
N#CCc1cnc2ccccc2n1,T/C,"dose: 6.25 mg/kg/injection, schedule: Q01DX009 (ip), vehicle: saline with Tween-80",96 % of control
same,T/C,"dose: 12.5 mg/kg/injection, schedule: Q01DX009 (ip), vehicle: saline with Tween-80",98 % of control
same,T/C,"dose: 12.5 mg/kg/injection, schedule: Q04DX003 (ip), vehicle: saline with Tween-80",94 % of control
same,T/C,"dose: 25.0 mg/kg/injection, schedule: Q01DX009 (ip), vehicle: saline with Tween-80",101 % of control
same,T/C,"dose: 25.0 mg/kg/injection, schedule: Q04DX003 (ip), vehicle: saline with Tween-80",96 % of control
Nc1nc(N)c(CCCOc2cccc(Cl)c2Cl)c(N)n1,T/C,"dose: 87.5 mg/kg/injection, schedule: Q01DX009 (ip), vehicle: Klucel (hydroxypropylcellulose) (HPC)",95 % of control
same,T/C,"dose: 175.0 mg/kg/injection, schedule: Q01DX009 (ip), vehicle: Klucel (hydroxypropylcellulose) (HPC)",88 % of control
same,T/C,"dose: 350.0 mg/kg/injection, schedule: Q01DX009 (ip), vehicle: Klucel (hydroxypropylcellulose) (HPC)",106 % of control
